In data set [1] the test system is Streptozotocin-induced diabetes in rat. Description: serum lipids lowering effect to Streptozotocin-induced diabetes in rat. In kind it is in vivo, Wistar-strain male rats. The settings on record: 4 hours after 25 mg/kg oral, Streptozocin 100 mg/kg tail vein. Here is the method: Test for determining serum lipids lowering effect to Streptozotocin-induceddiabetes in rat
Wistar-strain male rats of 7 week age were used as test animals. One test group consisting of six (6) rats. 100 Milligrams/kg of Streptozocin was administered to the tail vein of the test rat, then 4th day after the administration with Streptozocin, 25 mg/kg of each of the test compounds which was suspended in 0.5%-CMC-Na aqueous solution was orally administered to the rat. Similar to the test group, to each of six (6) rats in control group was administered with Streptozocin, and further orally administered with 0.5%-CMC-Na aqueous solution without containing each of the test compounds.
4 Hours after the administration of each of the test compounds, the blood sample was taken from each of the test rats, and serum triglycerids was measured by using a test reagent of Triglyceride G-Test Wako (manufacturedby Wako Pure Chemicals, Co., Ltd.).

The test system of data set [2] is Triton WR-1339-induced hyperlipidemia in rat. As to the kind of experiment: antilipotropic effect in Triton WR-1339-induced hyperlipidemia in rat. In kind it is in vivo, Wistar-strain male rats. Particulars: 50 mg/kg oral, vs control. The text has this: Wistar-strain male rats of 5-9 week age were used as test animals. One test group consisting of six (6) rats.
[a] is a determined value obtained from the control group, and
[b] is a determined value obtained from the test group).

For data set [3] the following is noted: large amount for a long period; animal test; cited from earlier work.
The nature of the next data set: Acute toxicity test. It counts as in vivo, Wistar-strain male rats. The settings on record: in vivo; oral; rat. The source says: (§1) Each of carboxamide compounds represented by the formula (1), which is the active ingredient contained in pharmaceutical composition according to the present invention, was suspended in 5%-CMC-Na aqueous solution and administered orally to Wistar-strain male rats of 7 week age (one test group consisting of 6 rats) so as to observe the acute toxicity of each of the carboxamide compounds.
(§2) Thus, LD50 value of Test compound No. 2 is considered to higher than […]. Thus, carboxamide compounds represented by the formula (1) according to the present invention can be said as quite safety compounds.

The next data set concerns Wistar-strain male rats. As to the kind of experiment: Acute toxicity test. In kind it is in vivo. The settings on record: 2 g/kg oral; rat.
Text: as §1, §2

The mark [4] stands for this setting: 24 hours after Triton WR-1339 (400 mg/kg, tail vein), read-out: lowering ratio of serum triglycerides, 24 hours after Triton WR-1339.
Setting [5] is: 24 hours after Triton WR-1339 (400 mg/kg, tail vein), read-out: lowering ratio of total serum cholesterol, 24 hours after Triton WR-1339.
Where [6] appears, read: 48 hours after Triton WR-1339 (400 mg/kg, tail vein), read-out: lowering ratio of serum triglycerides, 48 hours after Triton WR-1339.
Where [7] appears, read: 48 hours after Triton WR-1339 (400 mg/kg, tail vein), read-out: lowering ratio of total serum cholesterol, 48 hours after Triton WR-1339.

Like-named read-outs stand apart in the source and are kept apart here.

For the compound `CCOP(=O)(Cc1ccc(C(=O)Nc2ccc(Br)cc2)cc1)OCC` [compound 8], the Serum triglyceride in data set [1] stood at 471 mg/dL. In addition, the inhibition in vivo at 50 mg/kg in data set [2] (setting [4]) came to 86.8%; in data set [2] (setting [5]), 52.2%; in data set [2] (setting [6]) it was 92.5%; in data set [2] (setting [7]), 63.6%.
On to `CCC(C)(Oc1ccc(C2(c3ccc(OC(C)(CC)C(=O)O)cc3)CCCCC2)cc1)C(=O)O` (stereo not shown) [Clinofibrate, reference compound], for which, in data set [1], the Serum triglyceride was 2,067 mg/dl. Further, the inhibition in vivo at 50 mg/kg in data set [2] (setting [4]) was found to be 13.6%; in data set [2] (setting [5]), 9.8%; in data set [2] (setting [6]) it was 1.1%; in data set [2] (setting [7]), 1.9%.
As for `CCOC(=O)C(C)(C)Oc1ccc(Cl)cc1` [Clofibrate], the “formation of hepatic tumor” value in data set [3] was “the formation of hepatic tumor was observed”.
Turning to `CCOP(=O)(Cc1ccc(C(=O)N(Cc2ccccc2)c2ccc(Cl)cc2)cc1)OCC` [Test compound No. 2], the LD50 – broadly, the dose at which mortality reaches 50% – in “Acute toxicity test” is above 2000 mg/kg. For the same compound, the lethal cases result in the data set with Wistar-strain male rats is “not any lathal case at all”.

The values are drawn from patent US5081112A, “Method for treating hyperlipidemia” (Otsuka Pharmaceutical Factory Inc., priority 1986, dated 1992).
